The record followed here is paper PMC9696794, “Synthesis and Antimicrobial Activity of Short Analogues of the Marine Antimicrobial Peptide Turgencin A: Effects of SAR Optimizations, Cys-Cys Cyclization and Lipopeptide Modifications” (International Journal of Molecular Sciences, 2022).

Data set [1] deals with S. epidermidis RP62A (Se, ATCC 35984). In words: microbe, parasite or virus in culture. Format: cell-based, Staphylococcus epidermidis. As to conditions: for Antimicrobial Activity (MIC) Gram + Se: ATCC 35984, 24 h. Put shortly:
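Cultures grown in Mueller–Hinton broth were adjusted by OD600 to 2.5–3 × 10^4 CFU/mL and mixed with two-fold peptide dilutions from 256 to 1 µg/mL. Plates were incubated at 35 °C with OD595 monitored every hour for 24 h.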

Data set [2] has as its system A. pullulans (Ap). Kind of data set: microbe, parasite or virus in culture. Format: cell-based, Aurobasidium pollulans. The conditions noted are these: 48 h. An outline of the steps: (§1)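 Overnight cultures in potato dextrose broth with 2% glucose at 25–30 °C were diluted to approx. 4 × 10^5 spores/mL and mixed 1:1 with two-fold peptide dilutions plated at 256 to 1 µg/mL. After 48 h at room temperature, OD600 was read. MIC was the lowest concentration giving OD below 10% of the growth control, in triplicate.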

Data set [3] deals with E. coli MC4100 (WT). In words: Outer membrane permeability assay (NPN uptake fluorescence). The class given is cell-based, Escherichia coli. Here is the method:
The outer membrane of Gram-negative bacteria acts as a barrier for many hydrophobic and larger hydrophilic substances (>600 Da). However, some peptides can sensitize the outer membrane and thus facilitate the entry of various hydrophobic molecules. To explore if the peptides affect the outer membrane of E. coli MC4100, C12-cTurg-1 and C8-cTurg-2 were tested for their ability to enable the entry of the hydrophobic fluorescent probe 1-N-phenylnapthylamine (NPN, MW of 219 Da) (Figure 5). […] Normally, the hydrophobic NPN is excluded by E. coli bacteria, but it can enter the bacteria once the integrity of the outer membrane is compromised. […] Thus, the observed effects indicate that the outer membrane passage of C8-cTurg-2 was a rate-limiting step that was most likely preventing the peptide from reaching and accumulating in the inner membrane.
The permeability of the E. coli outer membrane was analysed by measuring increased fluorescence as kinetics of 1-N-phenylnaphthylamine (NPN, Sigma-Aldrich) uptake following the protocol described by, with minor modifications. Briefly, a single colony of E. coli MC4100 (WT) was suspended in MH medium and incubated overnight at 37 °C with shaking (225 rpm). The culture was diluted in MH medium and adjusted to OD600 = 0.1 and incubated at 37 °C until it reached an OD600 of 0.5. The cells were centrifuged and washed twice with an assay buffer (5 mM HEPES, 5 mM glucose, pH 7.2) and resuspended in the same buffer to a final OD600 of 1.0. E. coli MC4100 cells were mixed with 20 µM NPN. The assay set up was the same as for the membrane integrity and viability assay, using black round-bottom 96-well microtiter plates (Nunc) containing 10 µL of 2-fold dilutions of peptides (500 to 31.2 µg/mL). A volume of 90 µL of cell suspension with NPN was added to each well by the automated injector of the Synergy H1 Hybrid Reader. The fluorescence was immediately measured (well by well) at an excitation wavelength of 350 nm and an emission wavelength of 420 nm every second for 3 min. The relative fluorescence was calculated by normalizing the values from each time point with the negative control (Milli-Q water). CHX was included as a positive control.

In data set [4] the test system is fungi (A. pullulans, C. albicans, Rhodotorula sp.). Kind of data set: Antifungal MIC assay, all fungi together (range or geometric mean). The class given is cell-based. The conditions noted are these: Table S3; MIC >128 set to 128. Put shortly: as §1

Where a SMILES comes first, the peptide text is derived from it. Bridges are numbered along the chain shown (N, C = ends). The star is where a group is joined. Lauroyl = CCCCCCCCCCCC(=O)*; Octanoyl = CCCCCCCC(=O)*

Consider `[H]/N=C(\N/C(=N/[H])NCCCCCCNC(=N)NC(=N)Nc1ccc(Cl)cc1)Nc1ccc(Cl)cc1` [Chlorhexidine, reference compound], for which the MIC in data set [1] (Staphylococcus epidermidis, ATCC35984, S. epidermidis RP62A ATCC 35984, 24 h, read-out: Antimicrobial Activity (MIC) Gram + Se) came to 1.6 µg/mL; in data set [2] (Aureobasidium pullulans, A. pullulans, read-out: Antimicrobial Activity (MIC) Fungi Ap), 1 µg/mL. The “effect on NPN fluorescence (outer membrane permeabilization)” value (from here on “effect on NPN fluorescence”) in data set [3] (E. coli MC4100, 20 µM NPN, 3 min) was “increase the NPN fluorescence in a concentration-dependent manner”.
For the compound `CCCCCCCC(=O)N[C@H]1CSSC[C@@H](C(=O)N[C@@H](CCCCN)C(=O)N[C@@H](CC(C)C)C(N)=O)NC(=O)[C@H](CCCCN)NC(=O)[C@H](Cc2c[nH]c3ccccc23)NC(=O)CNC(=O)[C@H](Cc2c[nH]c3ccccc23)NC(=O)[C@H](Cc2c[nH]c3ccccc23)NC(=O)[C@H](CCCCN)NC(=O)[C@H](CCCCN)NC(=O)CNC1=O` [Peptide C8-cTurg-2, C8- (CGKKWWGWKC)KL-NH2] (Octanoyl-CGKKWWGWKCKL-NH2; disulfide 1-10), the “Antimicrobial Activity (MIC) Gram + Se” value in data set [1] came out at 4 µg/mL. Also, the “Antimicrobial Activity (MIC) Fungi Ap” value in data set [2] is 16 µg/mL. Moreover, in data set [4], the “GM of MIC Fungi” value is given as 13 µg/mL. The “effect on NPN fluorescence” value in data set [3] (not told) is listed as “increase the NPN fluorescence in a concentration-dependent manner”.
`CCCCCCCCCCCC(=O)N[C@H]1CSSC[C@@H](C(=O)N[C@@H](CCCCN)C(=O)N[C@@H](CC(C)C)C(N)=O)NC(=O)[C@H](CCCCN)NC(=O)[C@H](Cc2c[nH]c3ccccc23)NC(=O)CNC(=O)CNC(=O)[C@@H]2CCCN2C(=O)[C@H](CCCCN)NC(=O)[C@H](CCCCN)NC(=O)CNC1=O` [Peptide C12-cTurg-1, C12 -(CGKKPGGWKC)KL-NH2] (Lauroyl-CGKKPGGWKCKL-NH2; disulfide 1-10): the “Antimicrobial Activity (MIC) Gram + Se” value in data set [1] was determined as 4 µg/mL. The “Antimicrobial Activity (MIC) Fungi Ap” value in data set [2] is 32 µg/mL. Moreover, the “GM of MIC Fungi” value in data set [4] is 20 µg/mL. Besides, the “increase in NPN fluorescence” value in data set [3] (E. coli MC4100, 25 to 50 µg/mL) was “almost a four-fold increase”. Further, the “effect on NPN fluorescence” value in data set [3] (not told) is “increase the NPN fluorescence in a concentration-dependent manner”.
